# Results reported in patent publication EP4050002A1, “ANTI-PROLIFERATIVE AGENTS” (First Health Pharmaceuticals B.V., priority 2021, dated 2022).
# Read-outs that look alike come from different tables or passages of the source.
# Columns and labels:
# [1] = Tissue distribution in xenograft mice (conditions #1, #1A, #1B); type: in vivo, male FOXN1nu/nu nude mice; details: for Kp at 4 h: mouse, brain, ip, read-out: Brain to plasma
# Description: The pharmacokinetic study was performed in male Swiss albino mice from Hylasco Biotechnology Pvt. Ltd. (A Charles River technology Licensee). The tissue distribution study was performed in male Swiss albino mice and in male FOXN1^nu/nu nude mice (Envigo spa). The efficacy study was performed in male FOXN1^nu/nu nude mice.
# (§1) At study closure, animals were sacrificed and tumor and tissues removed for further studies of distribution and morphology. Mice from the efficacy study were anesthetized using gaseous anesthesia and blood samples collected in Li-Heparin containing tubes by intracardiac puncture, stored on ice, centrifuged within 15 minutes to separate plasma at 1540 ref (5000 rpm), at 4°C for 10 minutes; plasma was separated and transferred to new tubes. After blood collection, tissues for bio-analyses were separated, washed in PBS, dried and frozen at -80±10°C until homogenization.
# The levels of compound in the tissues were quantified by LC-MS/MS as follows.
# UHPLC-MS/MS analysis was performed on a Q-Exactive Plus (ThermoFisher Scientific) mass spectrometer coupled with an UHPLC Ultimate 3000SD (ThermoFisher Scientific).
# Chromatographic separation of the analytes was performed on an Acquity UPLC BEH Shield RP18 column ([…], 2.1 mm x 50 mm, […]) with a column temperature at 40°C.
# The flow rate was 250 µl/min. The mobile phase was a gradient of a mixture of 10 mM ammonium acetate with 0.1% formic acid (phase A) and Acetonitrile:Methanol (50:50 v/v) as phase B. The gradient profile used began with an elution of (A:B) 70:30 v/v for 1 min, followed by a gradual decrease of A to (A:B) 5:95 v/v until 5 min, a constant gradient for 1 min of 95% of B, then a gradual decrease of B to the initial condition until 7 min and then a final conditioning of the column for about 4 min in order to equilibrate for the next injection.
# The electrospray ionization source (ESI) was operated in positive mode. Parallel reaction monitoring (PRM) methods was applied to quantify compound 5. The selected transitions m/z 414.20-243.10 for compound 5 and m/z 360.18- 243.12 for the internal standard (compound 4) were considered. Each sample was assayed in duplicate.
# Preparation of plasma samples: Mouse plasma (10 µl) was placed into a tube containing 188 µl of a chilled Acetonitrile:Methanol solution (50:50 v/v) in order to precipitate proteins. Each sample was spiked with a fixed concentration (200 nM) of compound 4 used as internal standard. After 1 min of vortex, the mixture was centrifuged at 10,000 x g for 15 minutes at 4 °C to separate the protein material from the supernatant. The last one of each sample was transferred to a new sample tube and the solvent was evaporated under nitrogen stream. The dried material was re-suspended in 100 µl of mobile phase. The resulting solution was then analyzed by UHPLC-MS/MS without further modifications.
# Preparation of tissue samples was as follows: the tissues of interest were washed briefly with chilled water to remove traces of blood, if necessary, and cut into small pieces, keeping them on ice during all the operations. Then the samples were transferred to a tube and homogenized in purified water using the homogenizer TissueRuptor of Qiagen. In general, 300 µl of purified water was added to 50 mg of tissue. The homogenized samples were centrifuged at 10,000 x g for 15 minutes at 4°C to pellet cell debris, and then the supernatant were transferred to a clean tube in order to perform protein precipitation using a chilled solution of Acetonitrile:Methanol (50:50 v/v) and vortexed for 1 min. Before protein precipitation a fixed concentration (200 nM) of internal standard (Compound 4) was added in every sample. After centrifugation, the supernatant was separated from protein pellet and dried under nitrogen stream. 50 µl of mobile phase was used to re-suspend each dried sample. […]
# [2] = Systemic and organ toxicity; type: in vivo, mice
# Description: […] For blood withdrawal, mice were anesthetized using gaseous anesthesia and 0.2 to 0.3 ml of blood samples were collected in Li-Heparin containing tubes at the time points above indicated, stored on ice, centrifuged within 15 minutes to separate plasma at 1540 ref (5000 rpm) at 4°C for 10 minutes; plasma was separated and transferred to new tubes.
# as §1
# Tissues for histological analyses were washed in PBS and paraffin embedded soon after separation. Dehydration and Haematoxylin and Eosin (H&E) staining was performed on 5 µm thick sections followed by microscopic examination with Nikon Ni-e microscope (Nikon Instruments, Calenzano, Italy).
# [3] = #1: single I.P. administration, 45 mg/Kg, withdrawal 4 hours after administration
# [4] = #1A: two I.P. administration, 45 mg/Kg, at distance of 48 hours, withdrawal 4 hours after last administration
# [5] = #1B: 6 weeks of repeated I.P. administration, 45 mg/kg, every 48 hours, withdrawal 4 hours after last administration
structure (smiles),measurement,setting,value
CCCCc1cn(-c2ccc(-c3nnc(-c4ccccc4C(F)(F)F)o3)cc2)nn1 [Compound 5],Adipose to plasma,[1]; [3],14.3
same,Breast to plasma,[1]; [3],42.9
same,Intestine to plasma,[1]; [3],5.8
same,Kidney to plasma,[1]; [3],23.1
same,Liver to plasma,[1]; [3],7.3
same,Lung to plasma,[1]; [3],12.6
same,Lymph node to plasma,[1]; [3],17.9
same,Plasma,[1]; [3],2099.8 ng/mL
same,Spleen to plasma,[1]; [3],26.1
same,Tumor to plasma,[1]; [3],11.3
same,Adipose to plasma,[1]; [4],31.8
same,Breast to plasma,[1]; [4],10.9
same,Intestine to plasma,[1]; [4],4.2
same,Kidney to plasma,[1]; [4],21.6
same,Liver to plasma,[1]; [4],12.9
same,Lung to plasma,[1]; [4],10.3
same,Lymph node to plasma,[1]; [4],137.7
same,Plasma,[1]; [4],2188.6 ng/mL
same,Spleen to plasma,[1]; [4],23.3
same,Tumor to plasma,[1]; [4],39.9
same,Adipose to plasma,[1]; [5],233.3
same,Breast to plasma,[1]; [5],18.5
same,Intestine to plasma,[1]; [5],10.9
same,Kidney to plasma,[1]; [5],18.3
same,Liver to plasma,[1]; [5],12.4
same,Lung to plasma,[1]; [5],9.6
same,Lymph node to plasma,[1]; [5],27.5
same,Plasma,[1]; [5],4658.9 ng/mL
same,Spleen to plasma,[1]; [5],21.4
same,Tumor to plasma,[1]; [5],14.9
same,Kp at 4 h,"[1]; 45 mg/kg, #1: single I.P. administration, 45 mg/Kg, withdrawal 4 hours after administration",0.5
same,Kp at 4 h,"[1]; 45 mg/kg, #1A: two I.P. administration, 45 mg/Kg, at distance of 48 hours, withdrawal 4 hours after last administration",1.1
same,Kp at 4 h,"[1]; 45 mg/kg, #1B: 6 weeks of repeated I.P. administration, 45 mg/kg, every 48 hours, withdrawal 4 hours after last administration",0.7
same,"treatment related morphological changes in brain, liver, lung, spleen and kidney","[2]; 6 weeks of repeated treatment, I.P. 45mg/Kg every 48 hours",No treatment related morphological changes
same,systemic toxicities or altered behavior,"[2]; I.P. 10 mg/kg single administration, mice observed for 24 hours",no toxicities
same,systemic toxicities or altered behavior,"[2]; I.P. 45 mg/kg double administration, mice observed for 48 hours",no toxicities
same,systemic toxicities or altered behavior,"[2]; I.P. 45 mg/kg every 48 hours, 6 weeks, including 1 week follow up",no toxicities
same,systemic toxicities or altered behavior,"[2]; I.P. 45 mg/kg single administration, mice observed for 24 hours",no toxicities
same,systemic toxicities or altered behavior,"[2]; I.T. 0.08 mg/kg single administration, mice observed for 24 hours",no toxicities
same,systemic toxicities or altered behavior,"[2]; I.V. 1 mg/kg single administration, mice observed for 24 hours",no toxicities
same,systemic toxicities or altered behavior,"[2]; P.O. 45 mg/kg single administration, mice observed for 24 hours",no toxicities
